Reference: patent publication US20230339862A1, “NOVEL DIBENZOACRIDINIUM DERIVATIVES, THEIR PROCESS OF PREPARATION AND THEIR USE FOR TREATING VIRAL INFECTIONS” (priority 2020, published 2023)
Like-named read-outs stand apart in the source and are kept apart here.

Assays:
HIV-1 [1] = assay: microbe, parasite or virus in culture; assay type: cell-based; conditions: for inhibition of HIV-1 infectivity: 10 µM
Marburg virus = assay: organism not typed; assay type: cell-based; conditions: read-out: Marburg virus inhibition (immunohistochemistry, infectious titer)
Ebola Gabon virus = assay: microbe, parasite or virus in culture; assay type: cell-based; conditions: Zaire ebolavirus, read-out: Ebola virus inhibition (immunohistochemistry, infectious titer)
HIV-1 [2] = conditions: primary infected cells versus MT4 infected cell lines; cited from earlier work
HIV-1 [3] = conditions: MT4 cells, reported in 2014; read-out: IC50 HIV-1 infectivity; cited from earlier work

Structure (SMILES): c1ccc(-[n+]2c3ccc4ccccc4c3cc3c4ccccc4ccc32)cc1 [C038]
- inhibition of HIV-1 infectivity (HIV-1 [1]): Complete inhibition

Structure (SMILES): COc1ccc2c(ccc3c2cc2c4ccc(OC)cc4ccc2[n+]3-c2ccc([N+](=O)[O-])cc2)c1 [C0370]
- activity on HIV-1 relative to BRACO-19 (HIV-1 [1]): at least five time more active
- selectivity index (SI) (HIV-1 [1]): 17
- inhibition of HIV-1 infectivity (HIV-1 [1]): Complete inhibition

Structure (SMILES): c1ccc(C[n+]2c3ccc4ccccc4c3cc3c4ccccc4ccc32)cc1 [CO39]
- inhibition at 5 µM (Marburg virus; 5 μM): 30%
- inhibition at 20 µM (Marburg virus; 20 μM): ~100%
- inhibition at 5 µM (Ebola Gabon virus; 5 μM): ~60%
- inhibition at 20 µM (Ebola Gabon virus; 20 μM): ~100%

Structure (SMILES): COc1ccc2c(ccc3c2cc2c4ccc(OC)cc4ccc2[n+]3-c2ccccc2)c1.[Cl-] [C031]
- activity on HIV-1 relative to BRACO-19 (HIV-1 [1]): at least five time more active
- inhibition of HIV-1 infectivity (HIV-1 [1]): Complete inhibition

Structure (SMILES): CN(C)c1ccc(Nc2c3ccc(NC(=O)CCN4CCCC4)cc3nc3cc(NC(=O)CCN4CCCC4)ccc23)cc1 [Braco19]
- antiviral effect in primary infected cells (HIV-1 [2]): less efficient with respect to MT4 infected cell lines
- IC50 (HIV-1 [1]; Human immunodeficiency virus 1, HeLaP4, read-out: IC50 HIV-1 infectivity): ~8 µM
- IC50 (HIV-1 [3]): ~6 µM
